The term ΔTm denotes the shift of the melting midpoint relative to a reference. Broadly, the melting point is the temperature of the solid-liquid transition.

For series [1], the target named is T1, FGFR1 in recombinant human FGFR1/FGF2 complex (Homo sapiens, UniProt P11362).
T1 construct: made in house; host or cells: Escherichia coli BL21 (DE3) Star
Kind of series: Thermal shift assay (TSA), ΔTm of FGFR1 peak. The series is classed as binding. To be noted: for ΔTm at 100 µM / ΔTm at 10 µM / ΔTm at 25 µM: read-out: ΔTm (° C.) −FGFR1. The method, then:
(§1) TSA was utilized to biophysically characterize the recombinant human FGFR1/FGF2 complex in the presence or absence of selected compounds of formula (I), Compounds 1, 2a-2f, 20, 5, 60, and 8-13. Compound 1 was prepared according to the procedures described in Example 1, and the other compounds were obtained from commercial sources. The assay functions by protein denaturation over a temperature gradient. During protein unfolding, exposed hydrophobic regions bind a dye and fluoresce due to solvent relaxation effects. Changes in the melting temperature of the protein complex in the presence of each compound were monitored and compounds were screened/ranked using this method.
(§2) Thawed aliquots of purified FGF2 (1.0 mg/mL) and FGFR1 (1.6 mg/mL) proteins were mixed in a 1:1 molar ratio ([…]) on ice for 30 min at 4° C. and plated prior to the thermal shift assay (TSA).
(§3) Complex formation was verified by loading the complexed material on a size exclusion column (superdex 10 300GL S200) and observing the monodisperse peak corresponding to the FGF2/FGFR1 complex (˜ 40 kDa). Compounds described herein were screened in dose response format (0-100 μM) with the FGF2/FGFR1 complex in triplicates. FGF2/ FGFR1/compound complexes were mixed in a 1000:1 ratio with Sypro Orange dye (Sigma-Aldrich). The samples were processed using a Bio-Rad CFX C96 Touch quantitative polymerase chain reaction and run using the FRET assay settings with a heating ramp of 0.3° C./s cycling from 4 to 100° C. Data analysis was performed using the Bio-Rad CFX Manager Software (version 3.1, Bio-Rad) and changes in the melting temperature (Tm) of the complex in the presence of each compound were monitored. The results are shown in Table 9 below and also in FIG. 1 (for Compound 10).

For series [2], the target named is T2, FGF2 in recombinant human FGFR1/FGF2 complex (Homo sapiens, UniProt P09038).
T2 construct: made in house; host or cells: Escherichia coli BL21 (DE3) Star
Description: Thermal shift assay (TSA), ΔTm of FGF2 peak. It counts as binding. To be noted: for ΔTm at 100 µM / ΔTm at 10 µM / ΔTm at 25 µM: read-out: ΔTm (° C.) −FGF2. The protocol:
as §1, §2, §3

Where two headings read alike, the source gives them in different places.

T2 sequence (P09038 156-288 limits assumed): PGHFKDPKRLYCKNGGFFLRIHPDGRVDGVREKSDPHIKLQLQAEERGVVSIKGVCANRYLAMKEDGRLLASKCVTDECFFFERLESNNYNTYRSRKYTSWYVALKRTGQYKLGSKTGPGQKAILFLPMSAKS
T2 sequence (P11362 142-365 partner limits assumed): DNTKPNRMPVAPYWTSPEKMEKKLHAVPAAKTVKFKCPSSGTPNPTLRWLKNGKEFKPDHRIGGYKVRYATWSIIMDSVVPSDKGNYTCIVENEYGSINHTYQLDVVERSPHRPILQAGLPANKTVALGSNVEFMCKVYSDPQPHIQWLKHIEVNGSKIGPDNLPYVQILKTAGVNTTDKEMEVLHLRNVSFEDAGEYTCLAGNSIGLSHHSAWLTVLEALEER
T1 sequence (P11362 142-365 limits assumed): as the sequence (P11362 142-365 partner limits assumed) above
T1 sequence (P09038 156-288 partner limits assumed): as the sequence (P09038 156-288 limits assumed) above

For the compound `O=Cc1ccccc1` [Compound 1a], the ΔTm at 100 µM in series [1] worked out at 0.5 °C; in series [2], 0 °C.

Take `O=Cc1ccc(F)cc1` [Compound 1b]: the figures for the ΔTm at 100 µM in series [1] (100 μM compound) and in series [2] (100 μM compound) were 0 °C and 1 °C, respectively.

For the compound `O=Cc1ccc(Cl)cc1` [Compound 1c], the figures for the thermal shift (ΔTm) at 10 µM in series [1] and in series [2] were -2.2 °C and 2 °C, respectively.

Turning to `O=Cc1ccc(Br)cc1` [Compound 1d], the ΔTm at 25 µM in series [1] was -2.1 °C; in series [2], 1.6 °C.

On to `O=Cc1ccccc1F` [Compound 1e], for which the values for the thermal shift (ΔTm) at 100 µM in series [1] (100 μM compound) and in series [2] (100 μM compound) were 0 °C and 0.3 °C, respectively.

As to `O=Cc1cccc(F)c1` [Compound 1f, 3-fluorobenzaldehyde], the ΔTm at 50 µM in series [1] (50 μM compound) is 4 °C; in series [2] (50 μM compound), -0.4 °C.

For the compound `CCN(CC)c1ccc(C=O)cc1` [Compound 1o, 4-diethylaminobenzaldehyde], the thermal shift (ΔTm) at 25 µM in series [1] was 5 °C; in series [2] it was -2 °C.

On to `CCN(CC)c1ccc(/C=N/c2ccccc2)cc1` [Compound 4on], for which the ΔTm at 25 µM is 1.5 °C in series [1] (25 μM compound) and -0.5 °C in series [2] (25 μM compound).

For the compound `CCN(CC)c1ccc(/C=N/Cc2ccccc2)cc1` [Compound 4ow, (E)-4-((benzylimino)methyl)-N,N-diethylaniline], the ΔTm at 25 µM in series [1] (25 μM compound) is 4 °C; in series [2] (25 μM compound), -2 °C.

In turn, `CCN(CC)c1ccc(/C=N/c2ccc(C(F)(F)F)cc2)cc1` [Compound 4oy, (E)-N, N-diethyl-4-(((4-(trifluoromethyl)phenyl)imino)methyl)aniline] yielded a melting point of 129.3 to 129.6 °C. Besides, the ΔTm at 50 µM in series [1] (50 μM compound) was found to be 7.8 °C. The ΔTm at 50 µM in series [2] (50 μM compound) was -4.5 °C.

As for `CCN(CC)c1ccc(/C=N/O)cc1` [Compound 5o], the shift in melting temperature (ΔTm) at 2 µM is 3.5 °C in series [1] (2 μM compound) and -1 °C in series [2] (2 μM compound).

For the compound `CCN(CC)c1ccc(C(O)c2cccc(OC(F)(F)F)c2)cc1` (centres unmarked) [Compound 8om, (4-(diethylamino)phenyl)(3-(trifluoromethoxy)phenyl)methano], in series [1] (10 μM compound), the “ΔTm (° C.) −FGFR1” value is “+0.3 °C”. Moreover, the “ΔTm (° C.) −FGF2” value in series [2] (10 μM compound) came out at 0 °C.

For `O=C(c1ccccc1)c1cccc(F)c1` [Compound 9af], the ΔTm at 10 µM is 9.8 °C in series [1] (10 μM compound) and -6 °C in series [2] (10 μM compound).

On to `CCN(CC)c1ccc(C(=O)c2ccccc2)cc1` [Compound 9oa], for which the ΔTm at 10 µM in series [1] (10 μM compound) was 6 °C; in series [2] (10 μM compound), -0.3 °C.

Take `CCN(CC)c1ccc(/C=N/N=C/c2ccc(N(CC)CC)cc2)cc1` [Compound 10o, 4,4′-((1E,1′E)-hydrazine-1,2-diylidenebis(methaneylylidene))bis(N,N-diethylaniline)]: the results for the shift in melting temperature (ΔTm) at 2 µM in series [1] (2 μM compound) and in series [2] (2 μM compound) were 11 °C and -5.2 °C, respectively.

Turning to `CCN(CC)c1ccc(C2N[C@@H](C(=O)O)C(C)(C)S2)cc1` (stereo partly drawn) [Compound 11o, (4S)-2-(4-(diethylamino)phenyl)-5,5-dimethylthiazolidine-4-carboxylic acid], the ΔTm at 50 µM in series [1] (50 μM compound) is 2 °C; in series [2] (50 μM compound), -4.2 °C.

With `CCN(CC)c1ccc(/C=N/NC(=O)CN(C)C)cc1` [Compound 13oa, (E)-N′-(4-(diethylamino)benzylidene)-2-(dimethylamino)acetohydrazide], the ΔTm at 50 µM is 0 °C in series [1] (50 μM compound) and -2.1 °C in series [2] (50 μM compound).

Consider `CCN(CC)c1ccc(/C=N/NC(=O)C2CCOCC2)cc1` [Compound 13ob, (E)-N′-(4-(diethylamino)benzylidene)tetrahydro-2H-pyran-4-carbohydrazide], for which the ΔTm at 25 µM in series [1] (25 μM compound) was 1.5 °C; in series [2] (25 μM compound), -2.7 °C.

With `CCN(CC)c1ccc(/C=N/NC(=O)c2ccc(O)cc2)cc1` [Compound 13oe], the thermal shift (ΔTm) at 10 µM in series [1] (10 μM compound) is -1.5 °C; in series [2] (10 μM compound) it was -0.5 °C.

With `CCN(CC)c1ccc(/C=N/NC(=O)C2CCN(CCO)CC2)cc1` [Compound 13oh, (E)-N′-(4-(diethylamino)benzylidene)-1-(2-hydroxyethyl)piperidine-4-carbohydrazide], the ΔTm at 10 µM in series [1] (10 μM compound) worked out at 0.6 °C; in series [2] (10 μM compound) it was 0 °C.

Turning to `CCN(CC)c1ccc(/C=N/N2CCN(C(c3ccccc3)c3ccccc3)CC2)cc1` [Compound 15oa, (E)-4-(((4-benzhydrylpiperazin-1-yl)imino)methyl)-N,N-diethylaniline], the figures for the shift in melting temperature (ΔTm) at 100 µM in series [1] (100 μM compound) and in series [2] (100 μM compound) were 2 °C and -1.5 °C, respectively.

`CCN(CC)c1ccc(/C=N/N(c2ccccc2)c2ccccc2)cc1` [Compound 15ob]: the ΔTm at 25 µM in series [1] (25 μM compound) was 0 °C; in series [2] (25 μM compound), -1 °C.

On to `CCN(CC)c1ccc(/C=N/Nc2ccccc2)cc1` [Compound 15oc], for which the ΔTm at 2 µM in series [1] (2 μM compound) is 4.3 °C; in series [2] (2 μM compound), -2.4 °C.

Turning to `CCN(CC)c1ccc(/C=N/Nc2ccc(C#N)cc2)cc1` [Compound 15od, (E)-4-(2-(4-(diethylamino)benzylidene)hydrazineyl)benzonitrile], the shift in melting temperature (ΔTm) at 10 µM in series [1] (10 μM compound) was 0 °C; in series [2] (10 μM compound), -1 °C.

For `CCN(CC)c1ccc(C(C)=O)cc1` [Compound 16], the results for the ΔTm at 25 µM in series [1] and in series [2] were 0.2 °C and 0 °C, respectively.

For `CCN(CC)c1ccc(C(=O)O)cc1` [Compound 17], the ΔTm at 100 µM in series [1] (100 μM compound) turned out to be 2.5 °C; in series [2] (100 μM compound) it was 0 °C.

Regarding “(4-(diethylamino)phenyl)(3-(trifluoromethoxy)phenyl)methanone [Compound 9om]”, in series [1] (100 μM compound), the “ΔTm (° C.) −FGFR1” value was “+1.2 °C”. Further, in series [2] (100 μM compound), the “ΔTm (° C.) −FGF2” value is “+1.8 °C”.

As to “(4-(diethylamino)phenyl)(3-(trifluoromethyl)phenyl)methanone [Compound 9ob]”, the “ΔTm (° C.) −FGFR1” value in series [1] (50 μM compound) was “+1.2 °C”. In addition, the “ΔTm (° C.) −FGF2” value in series [2] (50 μM compound) is “+1.5 °C”.

As to “(4-(diethylamino)phenyl)(3-methoxyphenyl)methanone [Compound 9oc]”, the “ΔTm (° C.) −FGFR1” value in series [1] (2 μM compound) was “+9.5 °C”. In series [2] (2 μM compound), the “ΔTm (° C.) −FGF2” value was −5.6 °C.

The record behind these values is patent US20240173311A1, “METHODS AND COMPOSITIONS FOR MODULATING FGF ACTIVITY” (Recovery Therapeutics, Inc., priority 2021, published 2024).
